Experimental data published in BindingDB's records for doi:10.1016/j.bmc.2017.05.049 (Peking University, 2017).

Key:
[1] = Inhibition of trypsin-like activity of 20S proteasome in human HL60 cells using Z-LRRaminoluciferin as substrate pretreated for 2 hrs followed by substrate addition by […] assay
[2] = Inhibition of PGPH-like activity of 20S proteasome in human HL60 cells using Z-nLPnLDaminoluciferin as substrate pretreated for 2 hrs followed by substrate addition by […] assay

With `CC(C)C[C@H](NC(=O)OCc1ccccc1)C(=O)N[C@@H](Cc1ccc2ccccc2c1)C(=O)N1CCC[C@H]1B(O)O` as the compound, how does the IC50 [1] read?
The IC50 was 1660 nM.

What about the IC50 [2] of the same compound?
The IC50 was 1250 nM.
